Laboratory results as given in publication PMC5428881 (Chemical communications (Cambridge, England), 2011).

System: HeLa cells
Test: Cell permeability by fluorescence activated cell sorting
Assay type: cell-based
Conditions: FACS, 10 μM N-terminally fluorescein-conjugated peptide, 2 versus 1

Question: With LTFCRYWARLCS [compound 2] as the sequence, how does the “increase in mean fluorescence (cell permeability)” value read?
Answer: 2.5 fold
